Source: patent US20070197552A1, “Method and composition for treatment of diabetes, hypertension, chronic heart failure and fluid retentive states” (Novo Nordisk A/S, priority 2002, published 2007)
Where a name gives a salt, the structure may show the parent alone.

Experiments:
[1] = tested on: Non-fasted anaesthetised pigs; assay: In vivo testing of combination treatment: GLP-1 infusion and iv glucose load under DPP IV inhibition, with and without NEP 24.11 inhibition; parameters: species or system pig
Procedure: Non-fasted anaesthetised pigs (n=5) were given valine-pyrrolidide (250 μmol/kg; V) to inhibit DPP IV activity throughout the experiment. An intraveneous (iv) infusion of GLP-1 (0.75 pmol/kg/min) was started, during which an iv glucose load (0.2 g/kg over 9 min) was given. 90 min after the end of the first GLP-1 infusion, candoxatril was administered iv (5 mg/kg; C), and the protocol (GLP-1 and glucose infusion) was repeated. In addition, during both GLP-1 infusions, simultaneous blood samples were taken from the carotid artery, the renal, femoral, hepatic and portal veins for determination of arterio-venous GLP-1 concentration differences. Samples were analysed for blood glucose, insulin, glucagon and GLP-1 concentrations.

[2] = anaesthetised pigs, iv GLP-1 infusion

Cn1c(=O)c2c(nc(N3CC[C@H](N)C3)n2Cc2ccccc2)n(C)c1=O (as salt: HCl) [Example 3, (S) 8-(3-Aminopyrrolidin-1-yl)-7-benzyl-1,3-dimethyl-3,7-dihydropurine-2,6-dione]
melting point: 166 to 169 °C

Cn1c(=O)c2c(nc(N3CC[C@H](N)C3)n2Cc2ccccc2C#N)n(C)c1=O (as salt: HCl) [Example 8, (S) 2-(8-(3-Aminopyrrolidin-1-yl)-1,3-dimethyl-2,6-dioxo-1,2,3,6-tetrahydropurin-7-ylmethyl)benzonitrile]
melting point: 104 to 117 °C

Cn1c(=O)c2c(nc(N3CC[C@H](N)C3)n2Cc2ccccc2Br)n(C)c1=O (as salt: HCl) [Example 12, (S) 8-(3-Aminopyrrolidin-1-yl)-7-(2-bromobenzyl)-1,3-dimethyl-3,7-dihydropurine-2,6-dione]
melting point: 215 to 217 °C

CC(C)[C@H](N)C(=O)N1CCCC1 [VP, valine-pyrrolidide]
plasma levels of GLP-1 (plateau level) ([1]; anaesthetised pigs n=5, iv GLP-1 infusion 0.75 pmol/kg/min, valine-pyrrolidide 250 μmol/kg, candoxatril 5 mg/kg iv, FIG. 1): 73 ± 13 pmol/L
glucagon concentrations ([1]; anaesthetised pigs, 20 min period following C administration, before start of the GLP-1 infusion, FIG. 4): 9 ± 2 pmol/L
insulin secretion (AUC27-67 min) ([1]; anaesthetised pigs, GLP-1 and glucose infusion, FIG. 3): 3606 ± 668 pmol·min/L
renal clearance (organ extraction) of GLP-1 ([1]; anaesthetised pigs, calculated from arterio-venous GLP-1 concentration differences): 58.7±4.3%
metabolic clearance rate of GLP-1 [1, 2]: 25.1 ± 3.9 mL/kg/min
plasma t½ of GLP-1 [1, 2]: 2.5 ± 0.2 min
glucose excursion (ΔAUC2-77 min) ([1]; anaesthetised pigs, iv glucose load 0.2 g/kg over 9 min during GLP-1 infusion, FIG. 2): 59 ± 4 mmol·min/L
glucose elimination rate ([1]; anaesthetised pigs, iv glucose load during GLP-1 infusion): 6.6±0.5 %/min
